The data set can be described thus: Solubility of the Compound in water, biorelevant media (FaSSIF, FeSSIF) and oils. The format is physicochemical.

Values after ≈ are worked out from the molar mass of the structure shown. Read-outs that look alike come from different tables or passages of the source.

As to `COc1cc2ncc3c(c2cc1-c1cnn(C)c1)n(-c1ccc(C#N)cc1F)c(=O)n3C` [3-Fluoro-4-[7-methoxy-3-methyl-8-(1-methyl-1H-pyrazol-4-yl)-2-oxo-2,3-dihydro-imidazo[4,5-c]quinolin-1-yl]-benzonitrile], the “DCS classification (Butler and Dressman, 2010)” value is recorded as “DCS IIb”. The solubility – broadly, the dissolved amount per volume that the medium holds – (FaSSIF, read-out: solubility in Fasted Simulated Intestinal Fluid (FaSSIF)) was 0.25 µg/mL (≈ 0.584 µM). Further, the solubility (FeSSIF, read-out: solubility in FedState Simulated Intestinal Fluid (FeSSIF)) is 1 µg/mL (≈ 2.33 µM). Moreover, where the note is “estimated efficacious human dose of >100 mg”, the dose/solubility ratio entry is on record as “at least 100,000”. For the same compound, for the setting “in words”, the “solubility in the tested oils” value is “low solubility”; the “solubility in water and biorelevant media” value is “very low solubility”.

`COc1cc2ncc3c(c2cc1-c1cnn(C)c1)n(-c1ccc(C#N)cc1F)c(=O)n3C` [Compound, 3-Fluoro-4-[7-methoxy-3-methyl-8-(1-methyl-1H-pyrazol-4-yl)-2-oxo-2,3-dihydro-imidazo[4,5-c]quinolin-1-yl]-benzonitrile]: the solubility (FaSSIF, as restated in Example 5, read-out: solubility of the Compound in FaSSIF) was around 0.25 µg/mL (≈ 0.584 µM).

These data come from US11478459B2, “Pharmaceutical preparation” (Merck Patent GmbH, priority 2017, dated 2022).
